Assay results published in US9828369B2, “Isoquinoline derivatives useful as inhibitors of diacylglyceride O-acyltransferase 2” (Merck Sharp & Dohme Corp., priority 2014, dated 2017).

Each compound was assayed against hDGAT2 (Homo sapiens (Human), UniProt Q96PD7) (assay: DGAT2 enzymatic activity assay (triolein formation, LC/MS/MS)). Settings: not given.
hDGAT2, sequence (Q96PD7 whole entry): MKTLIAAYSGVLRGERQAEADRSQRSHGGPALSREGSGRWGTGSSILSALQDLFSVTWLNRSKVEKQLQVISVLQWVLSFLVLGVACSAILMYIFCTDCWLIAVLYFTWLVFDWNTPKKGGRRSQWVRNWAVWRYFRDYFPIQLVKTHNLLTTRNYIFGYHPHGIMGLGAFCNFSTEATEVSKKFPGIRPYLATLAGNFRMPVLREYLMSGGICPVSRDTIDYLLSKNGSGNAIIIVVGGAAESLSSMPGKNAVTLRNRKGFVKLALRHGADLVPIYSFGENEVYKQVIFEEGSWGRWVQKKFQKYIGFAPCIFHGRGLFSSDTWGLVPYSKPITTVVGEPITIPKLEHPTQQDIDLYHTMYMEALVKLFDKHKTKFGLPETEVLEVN

IC50 [nM]	Compound
2000	COc1cccc(-c2ccc(CNC(=O)c3ccc(-n4cccn4)cc3)c3cnccc23)c1 [Example 65, N-((5-(3-methoxyphenyl)isoquinolin-8-yl)methyl)-4-(1H-pyrazol-1-yl)benzamide]

Same assay, conditions: read-out: IC50 values for inhibition of DGAT2; membrane prep of Sf-9 cells expressing hDGAT2; 25 μM diolein, 10 μM oleoyl-CoA; room temperature; triolein by LC/MS/MS

Compound	IC50 [nM]
COc1cccc(-c2ccc(CNC(=O)Cc3ccc(Oc4ccccc4)cc3)c3cnccc23)c1 [Example 53, N-((5-(3-methoxyphenyl)isoquinolin-8-yl)methyl)-2-(4-phenoxyphenyl)acetamide]	2160
COc1cccc(-c2ccc(CNC(=O)Cc3ccccc3Oc3ccccc3)c3cnccc23)c1 [Example 55, N-((5-(3-methoxyphenyl)isoquinolin-8-yl)methyl)-2-(2-phenoxyphenyl)acetamide]	306
COc1cccc(-c2ccc(CNC(=O)Cc3cccc(S(C)(=O)=O)c3)c3cnccc23)c1 [Example 56, N-((5-(3-methoxyphenyl)isoquinolin-8-yl)methyl)-2-(3-(methylsulfonyl)phenyl)acetamide]	1640
COc1cccc(-c2ccc(CNC(=O)Cc3ccc(OC(F)(F)F)cc3)c3cnccc23)c1 [Example 57, N-((5-(3-methoxyphenyl)isoquinolin-8-yl)methyl)-2-(4-(trifluoromethoxy)phenyl)acetamide]	4450
COc1cccc(-c2ccc(CNC(=O)Cc3ccc(F)c(F)c3F)c3cnccc23)c1 [Example 58, N-((5-(3-methoxyphenyl)isoquinolin-8-yl)methyl)-2-(2,3,4-trifluorophenyl)acetamide]	7290
COc1cccc(-c2ccc(CNC(=O)Cc3cc(F)c(F)cc3F)c3cnccc23)c1 [Example 59, N-((5-(3-methoxyphenyl)isoquinolin-8-yl)methyl)-2-(2,4,5-trifluorophenyl)acetamide]	550
COc1cccc(-c2ccc(CNC(=O)Cc3cc(F)c(F)c(F)c3)c3cnccc23)c1 [Example 60, N-((5-(3-methoxyphenyl)isoquinolin-8-yl)methyl)-2-(3,4,5-trifluorophenyl)acetamide]	2140
COc1cccc(-c2ccc(CNC(=O)Cc3cccc(OC(F)(F)F)c3)c3cnccc23)c1 [Example 62, N-((5-(3-methoxyphenyl)isoquinolin-8-yl)methyl)-2-(3-(trifluoromethoxy)phenyl)acetamide]	602
COc1cccc(-c2ccc(CNC(=O)Cc3ccc4c(c3)OCCO4)c3cnccc23)c1 [Example 63, 2-(2,3-dihydrobenzo[b][1,4]dioxin-6-yl)-N-((5-(3-methoxyphenyl)isoquinolin-8-yl)methyl)acetamide]	3050
COc1cccc(-c2ccc(CNC(=O)Cc3csc(-c4ccc(F)cc4)n3)c3cnccc23)c1 [Example 64, 2-(2-(4-fluorophenyl)thiazol-4-yl)-N-((5-(3-methoxyphenyl)isoquinolin-8-yl)methyl)acetamide]	609
COc1cccc(-c2ccc(CNC(=O)c3ccc(N4CCCC4=O)cc3)c3cnccc23)c1 [Example 67, N-((5-(3-methoxyphenyl)isoquinolin-8-yl)methyl)-4-(2-oxopyrrolidin-1-yl)benzamide]	1950
COc1cccc(-c2ccc(CNC(=O)c3csc(-c4ccc(C(F)(F)F)cc4)n3)c3cnccc23)c1 [Example 78, N-((5-(3-methoxyphenyl)isoquinolin-8-yl)methyl)-2-(4-(trifluoromethyl)phenyl)thiazole-4-carboxamide]	1250
COc1cccc(-c2ccc(CNC(=O)c3ccc(N4CCCCC4)cc3)c3cnccc23)c1 [Example 84, N-((5-(3-methoxyphenyl)isoquinolin-8-yl)methyl)-4-(piperidin-1-yl)benzamide]	988
COc1cccc(-c2ccc(CNC(=O)c3cc(-c4ccccc4)nn3-c3ccccc3)c3cnccc23)c1 [Example 85, N-((5-(3-methoxyphenyl)isoquinolin-8-yl)methyl)-1,3-diphenyl-1H-pyrazole-5-carboxamide]	3580
COc1cccc(-c2ccc(CNC(=O)c3ccc(-c4ccc(F)cc4)cc3)c3cnccc23)c1 [Example 86, 4′-fluoro-N-((5-(3-methoxyphenyl)isoquinolin-8-yl)methyl)-[1,1′-biphenyl]-4-carboxamide]	1400
COc1cccc(-c2ccc(CNC(=O)c3ccc(-c4cccc(F)c4)cc3)c3cnccc23)c1 [Example 88, 3′-fluoro-N-((5-(3-methoxyphenyl)isoquinolin-8-yl)methyl)-[1,1′-biphenyl]-4-carboxamide]	1560

More lines, now with the values ahead:

IC50 [nM]	Compound
2760	COc1cccc(-c2ccc(CNC(=O)Cc3cccc(Cl)c3)c3cnccc23)c1 [Example 54, 2-(3-chlorophenyl)-N-((5-(3-methoxyphenyl)isoquinolin-8-yl)methyl)acetamide]
758	COc1cccc(-c2ccc(CNC(=O)Cc3ccccc3OC(F)(F)F)c3cnccc23)c1 [Example 61, N-((5-(3-methoxyphenyl)isoquinolin-8-yl)methyl)-2-(2-(trifluoromethoxy)phenyl)acetamide]
479	COc1cccc(-c2ccc(CNC(=O)c3cn(-c4ccccc4)nc3-c3ccccc3)c3cnccc23)c1 [Example 66, N-((5-(3-methoxyphenyl)isoquinolin-8-yl)methyl)-1,3-diphenyl-1H-pyrazole-4-carboxamide]
1650	COc1cccc(-c2ccc(CNC(=O)c3cccc(-n4nc(C)cc4C)c3)c3cnccc23)c1 [Example 68, 3-(3,5-dimethyl-1H-pyrazol-1-yl)-N-((5-(3-methoxyphenyl)isoquinolin-8-yl)methyl)benzamide]
3410	COc1cccc(-c2ccc(CNC(=O)c3ccnc(-n4cnnn4)c3)c3cnccc23)c1 [Example 69, N-((5-(3-methoxyphenyl)isoquinolin-8-yl)methyl)-2-(1H-tetrazol-1-yl)isonicotinamide]
2330	COc1cccc(-c2ccc(CNC(=O)c3coc(-c4ccccc4)n3)c3cnccc23)c1 [Example 70, N-((5-(3-methoxyphenyl)isoquinolin-8-yl)methyl)-2-phenyloxazole-4-carboxamide]
3890	COc1cccc(-c2ccc(CNC(=O)c3noc(-c4ccccc4)n3)c3cnccc23)c1 [Example 72, N-((5-(3-methoxyphenyl)isoquinolin-8-yl)methyl)-5-phenyl-1,2,4-oxadiazole-3-carboxamide]
5840	COc1cccc(-c2ccc(CNC(=O)c3c[nH]c(-c4ccccc4)n3)c3cnccc23)c1 [Example 73, N-((5-(3-methoxyphenyl)isoquinolin-8-yl)methyl)-2-phenyl-1H-imidazole-4-carboxamide]
1270	COc1cccc(-c2ccc(CNC(=O)c3ccn(-c4ccccc4)n3)c3cnccc23)c1 [Example 74, N-((5-(3-methoxyphenyl)isoquinolin-8-yl)methyl)-1-phenyl-1H-pyrazole-3-carboxamide]
9050	COc1cccc(-c2ccc(CNC(=O)c3cnc(-c4ccccc4)cn3)c3cnccc23)c1 [Example 75, N-((5-(3-methoxyphenyl)isoquinolin-8-yl)methyl)-5-phenylpyrazine-2-carboxamide]
4460	COc1cccc(-c2ccc(CNC(=O)c3ccc(-c4ccon4)cc3)c3cnccc23)c1 [Example 76, 4-(isoxazol-3-yl)-N-((5-(3-methoxyphenyl)isoquinolin-8-yl)methyl)benzamide]
1220	COc1cccc(-c2ccc(CNC(=O)c3ccncc3-c3ccccc3)c3cnccc23)c1 [Example 77, N-((5-(3-methoxyphenyl)isoquinolin-8-yl)methyl)-3-phenylisonicotinamide]
8490	COc1cccc(-c2ccc(CNC(=O)c3cnn(-c4ccccc4)c3)c3cnccc23)c1 [Example 79, N-((5-(3-methoxyphenyl)isoquinolin-8-yl)methyl)-1-phenyl-1H-pyrazole-4-carboxamide]
2410	COc1cccc(-c2ccc(CNC(=O)c3cc(-c4ccccc4)no3)c3cnccc23)c1 [Example 80, N-((5-(3-methoxyphenyl)isoquinolin-8-yl)methyl)-3-phenylisoxazole-5-carboxamide]
483	COc1cccc(-c2ccc(CNC(=O)Cc3nnc(-c4ccccc4)[nH]3)c3cnccc23)c1 [Example 81, N-((5-(3-methoxyphenyl)isoquinolin-8-yl)methyl)-2-(5-phenyl-4H-1,2,4-triazol-3-yl)acetamide]
602	COc1cccc(-c2ccc(CNC(=O)c3ccc(-c4ccccc4O)cc3)c3cnccc23)c1 [Example 82, 2′-hydroxy-N-((5-(3-methoxyphenyl)isoquinolin-8-yl)methyl)-[1,1′-biphenyl]-4-carboxamide]
1450	COc1cccc(-c2ccc(CNC(=O)c3ccc(-c4ccccc4)o3)c3cnccc23)c1 [Example 83, N-((5-(3-methoxyphenyl)isoquinolin-8-yl)methyl)-5-phenylfuran-2-carboxamide]
1200	COc1cccc(-c2ccc(CNC(=O)c3cccc(-c4cccc(F)c4)c3)c3cnccc23)c1 [Example 87, 3′-fluoro-N-((5-(3-methoxyphenyl)isoquinolin-8-yl)methyl)-[1,1′-biphenyl]-3-carboxamide]
2230	COc1cccc(-c2ccc(CNC(=O)Cc3nc(-c4ccccc4)cs3)c3cnccc23)c1 [Example 89, N-((5-(3-methoxyphenyl)isoquinolin-8-yl)methyl)-2-(4-phenylthiazol-2-yl)acetamide]
902	COc1cccc(-c2ccc(CNC(=O)c3ccccc3-n3cnnn3)c3cnccc23)c1 [Example 90, N-((5-(3-methoxyphenyl)isoquinolin-8-yl)methyl)-2-(1H-tetrazol-1-yl)benzamide]
889	COc1cccc(-c2ccc(CNC(=O)c3cccc(-n4cnnn4)c3)c3cnccc23)c1 [Example 91, N-((5-(3-methoxyphenyl)isoquinolin-8-yl)methyl)-3-(1H-tetrazol-1-yl)benzamide]
1760	COc1cccc(-c2ccc(CNC(=O)c3cccc4cnccc34)c3cnccc23)c1 [Example 92, N-((5-(3-methoxyphenyl)isoquinolin-8-yl)methyl)isoquinoline-5-carboxamide]
